Measured values taken from PubChem BioAssay (NCI).
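Method: 48-hour compound exposure of cells in 96-well plates, five concentrations, linear interpolation of endpoints. TGI denotes the concentration required for complete inhibition of growth.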

How the values were obtained:
Test in all cases: DTP human tumour cell line panel, 48 h
MCF7 breast = system: MCF7 breast
A498 renal = system: A498 renal
OVCAR-5 ovarian = system: OVCAR-5 ovarian
HCT-116 colon = system: HCT-116 colon
HOP-62 NSCLC = system: HOP-62 NSCLC
EKVX NSCLC = system: EKVX NSCLC
MOLT-4 leukemia = system: MOLT-4 leukemia
HT29 colon = system: HT29 colon
DU-145 prostate = system: DU-145 prostate
M14 melanoma = system: M14 melanoma
SNB-19 CNS = system: SNB-19 CNS
MALME-3M melanoma = system: MALME-3M melanoma
COLO 205 colon = system: COLO 205 colon
SK-MEL-2 melanoma = system: SK-MEL-2 melanoma
SK-OV-3 ovarian = system: SK-OV-3 ovarian
OVCAR-8 ovarian = system: OVCAR-8 ovarian
SNB-75 CNS = system: SNB-75 CNS
K-562 leukemia = system: K-562 leukemia
SN12C renal = system: SN12C renal
SF-268 CNS = system: SF-268 CNS
HOP-92 NSCLC = system: HOP-92 NSCLC
IGROV1 ovarian = system: IGROV1 ovarian
MDA-MB-231 breast = system: MDA-MB-231 breast
NCI-H522 lung = system: NCI-H522 lung
NCI-H460 lung = system: NCI-H460 lung
TK-10 renal = system: TK-10 renal
UO-31 renal = system: UO-31 renal
PC-3 prostate = system: PC-3 prostate
T-47D breast = system: T-47D breast
NCI-H23 lung = system: NCI-H23 lung
OVCAR-3 ovarian = system: OVCAR-3 ovarian
MDA-MB-435 = system: MDA-MB-435
786-0 renal = system: 786-0 renal
SF-295 CNS = system: SF-295 CNS
CCRF-CEM leukemia = system: CCRF-CEM leukemia
HCC-2998 colon = system: HCC-2998 colon
KM12 colon = system: KM12 colon
NCI-H226 lung = system: NCI-H226 lung
LOX IMVI melanoma = system: LOX IMVI melanoma
UACC-62 melanoma = system: UACC-62 melanoma
SW-620 colon = system: SW-620 colon
RXF 393 renal = system: RXF 393 renal
ACHN renal = system: ACHN renal
A549 NSCLC = system: A549 NSCLC
U251 CNS = system: U251 CNS
HS 578T breast = system: HS 578T breast
SK-MEL-5 melanoma = system: SK-MEL-5 melanoma
CAKI-1 renal = system: CAKI-1 renal
OVCAR-4 ovarian = system: OVCAR-4 ovarian
SF-539 CNS = system: SF-539 CNS
UACC-257 melanoma = system: UACC-257 melanoma
BT-549 breast = system: BT-549 breast
NCI/ADR-RES ovarian = system: NCI/ADR-RES ovarian
HCT-15 colon = system: HCT-15 colon
SK-MEL-28 melanoma = system: SK-MEL-28 melanoma
MDA-N = system: MDA-N
RPMI-8226 leukemia = system: RPMI-8226 leukemia

Measured: TGI

COc1cc(O)c2c(=O)c3c(C)cccc3n(C)c2c1
> 10 µM: MCF7 breast | A498 renal | OVCAR-5 ovarian | HCT-116 colon | HOP-62 NSCLC | EKVX NSCLC | MOLT-4 leukemia | HT29 colon | DU-145 prostate | M14 melanoma | SNB-19 CNS | MALME-3M melanoma | COLO 205 colon | SK-MEL-2 melanoma | SK-OV-3 ovarian | OVCAR-8 ovarian | SNB-75 CNS | K-562 leukemia | SN12C renal | SF-268 CNS | HOP-92 NSCLC | IGROV1 ovarian | MDA-MB-231 breast | NCI-H522 lung | NCI-H460 lung | TK-10 renal | UO-31 renal | PC-3 prostate | T-47D breast | NCI-H23 lung | OVCAR-3 ovarian | MDA-MB-435 | 786-0 renal | SF-295 CNS | CCRF-CEM leukemia | HCC-2998 colon | KM12 colon | NCI-H226 lung | LOX IMVI melanoma | UACC-62 melanoma | SW-620 colon | RXF 393 renal | ACHN renal | A549 NSCLC | U251 CNS | HS 578T breast | SK-MEL-5 melanoma | CAKI-1 renal | OVCAR-4 ovarian | SF-539 CNS | UACC-257 melanoma | BT-549 breast | NCI/ADR-RES ovarian | HCT-15 colon | SK-MEL-28 melanoma | MDA-N | RPMI-8226 leukemia
